Assay results as given in publication PMC4977651, “Molecular features of biguanides required for targeting of mitochondrial respiratory complex I and activation of AMP-kinase” (BMC Biology, 2016).
“And” between values parts separate entries of the source, which are not always exact repeats. Equal values may be shown once.

Columns and labels:
[1] = test system: HepG2 cells; test: Rotenone-sensitive oxygen consumption rate in intact HepG2 cells; type: cell-based, human; settings: for rotenone sensitive OCR after 6 hours of biguanide exposure, % control, average / rotenone sensitive OCR after 6 hours of biguanide exposure, average: HEPG2 cells, biguanide at IC50/10; for rotenone sensitive OCR after 6 hours of biguanide exposure, average: OCR normalized to OCR immediately prior to biguanide addition; for inhibition of rotenone-sensitive respiration (in words): intact HepG2 cells, biguanide at IC50/10, monitored for 6 h
Protocol: (§1) 143B (CRL-8303 from ATCC), HepG2 (85011430 from The Health Protection Agency), and MDBK (CCL-22 from ATCC) cells were grown on Dulbecco’s modified Eagle’s medium (DMEM) supplemented with 10 % fetal bovine serum (FBS, Thermo Fisher Scientific) at 37 °C in 5 % CO2. All cells were confirmed as negative for mycoplasma.
(§2) Oxygen consumption rates (OCRs) were measured using a Seahorse XF96 extracellular flux analyzer at 37 °C. For intact cell measurements, 1.4 × 10^4 143B, HepG2, or MDBK cells were plated (per well) in DMEM containing 10 % FBS into Seahorse Bioscience Inc. XF96 plates and incubated for ~12 h at 37 °C in 5 % CO2. Then, the medium was exchanged for assay buffer containing DMEM, 4.5 g L^−1 glucose, 1 mM pyruvate, 32 mM NaCl, 2 mM GlutaMAX, 15 mg L^−1 phenol red, and 20 mM HEPES (pH 7.4 at 37 °C) and the cells placed in a CO2-free incubator at 37 °C for 30 min. Basal oxygen consumption rates were established before the addition of biguanides at one-tenth of their IC50 (IC50/10), and followed for ~ 6 h before the addition of rotenone (2 μM).
(§3) Rotenone-sensitive OCRs were calculated by subtracting the rotenone-insensitive rates (determined at the end of the experiment). OCRs were normalized by dividing by the OCR recorded immediately prior to the addition of biguanide. For rate of uptake calculations, the OCRs at time points after biguanide addition were divided by the OCRs at the same time points in control experiments. Data from wells with failed port injections were excluded from the analyses. The respiratory control ratio (RCR) values (state III versus state IV respiration) were ~11 and ~6 for permeabilized MDBK and 143B cells, respectively.

[2] = test system: rat liver mitochondria; test: ADP-stimulated rotenone-sensitive OCR in isolated rat liver mitochondria; type: biochemical; parameters: rotenone sensitive OCR after ADP stimulation, individual replicates / rotenone sensitive OCR after ADP stimulation, average: unit not given here; settings: for rotenone sensitive OCR after ADP stimulation, % of control, average / rotenone sensitive OCR after ADP stimulation, average: average of replicates; for rotenone sensitive OCR after ADP stimulation, % of control, individual replicates / rotenone sensitive OCR after ADP stimulation, individual replicates: replicate 1-5
Protocol: (§4) Complex I and mitochondrial membranes were prepared from Bos taurus (bovine) heart. Intact mitochondria were isolated from rat liver and mouse heart and liver. Membranes were prepared from mouse heart mitochondria by 5 s bursts of sonication at 4 °C and collected by centrifugation (75,000 × g, 1 h).
(§5) Isolated mitochondria were monitored using a Seahorse XF96 extracellular flux analyzer at 32 °C. Mouse heart mitochondria, and mouse and rat liver mitochondria were plated into XF96 plates at 4 and 16–20 μg per well, respectively, in 220 mM mannitol, 70 mM sucrose, 10 mM KH2PO4, 5 mM MgCl2, 1 mM EGTA, 0.2 % fatty acid-free BSA, and 2 mM HEPES (pH 7.4 at 37 °C) with 10 mM glutamate and 10 mM malate and adhered by centrifugation (2000 × g, 20 min, 4 °C). The medium was supplemented with a further 5 mM glutamate and 5 mM malate and the mitochondria incubated for 15 min. Then two baseline readings were taken before the biguanides were added at IC50/5. Biguanides were allowed to accumulate for 15–20 min before respiration was […] by the addition of 4 mM ADP. Rotenone (2 μM) was added at the end of the experiment. Data from wells with failed port injections were excluded from the analyses. The RCR values (state III versus state IV respiration) were 3.4, 4.8, and 4.6 for mouse heart, rat liver, and mouse liver, respectively.

[3] = test system: permeabilized MDBK cells; test: ADP-stimulated rotenone-sensitive OCR in permeabilized MDBK cells; type: cell-based, Bos taurus; parameters: rotenone sensitive OCR after ADP stimulation, average / rotenone sensitive OCR after ADP stimulation: unit not given here; settings: for inhibition of OCR: MDBK cells, 30 min, data used for Fig. 4c matrix concentration estimate; for rotenone sensitive OCR after ADP stimulation, % of control, average / rotenone sensitive OCR after ADP stimulation, average / rotenone sensitive OCR after ADP stimulation / rotenone sensitive OCR after ADP stimulation, % of control: MDBK permeabilised cells; for rotenone sensitive OCR after ADP stimulation, % of control, average / rotenone sensitive OCR after ADP stimulation, average: average of replicates; for rotenone sensitive OCR after ADP stimulation / rotenone sensitive OCR after ADP stimulation, % of control: individual replicates
Protocol: For permeabilized cell experiments, cells were seeded into XF96 plates at 0.9–1.1 × 10^4 per well and incubated for 48 h at 37 °C in 5 % CO2. Then, the growth medium was exchanged for assay buffer containing 3 nM plasma membrane permeabilizer ‘PMP’ (Seahorse Biosciences Inc.), 10 mM glutamate, 10 mM malate, 220 mM mannitol, 70 mM sucrose, 10 mM KH2PO4, 5 mM MgCl2, 1 mM EGTA, 0.2 % fatty acid-free bovine serum albumin (BSA), and 2 mM HEPES (pH 7.4 at 37 °C). […] The biguanides were allowed to accumulate for 30 min, then respiration was […] by the addition of 4 mM ADP. Rotenone was added (2 μM) at the end of the experiment.
as §3

[4] = test system: MDBK cells; test: Rotenone-sensitive oxygen consumption rate in intact MDBK cells; type: cell-based, Bos taurus; parameters: key to rotenone sensitive OCR after 40 mins of biguanide exposure / rotenone sensitive OCR after 40 mins of biguanide exposure, average: % of OCR recorded immediately before biguanide addition; settings: biguanide at IC50/10; for rotenone sensitive OCR after 6 hours of biguanide exposure, % control, average / rotenone sensitive OCR after 6 hours of biguanide exposure, average: MDBK cells; for rotenone sensitive OCR after 6 hours of biguanide exposure, average: OCR normalized to OCR immediately prior to biguanide addition; for rotenone sensitive OCR after 40 mins of biguanide exposure, % control, average / rotenone sensitive OCR after 40 mins of biguanide exposure, average / rotenone sensitive OCR after 40 mins of biguanide exposure / rotenone sensitive OCR after 40 mins of biguanide exposure, % control: MDBK intact cells; for rotenone sensitive OCR after 40 mins of biguanide exposure, % control, average / rotenone sensitive OCR after 40 mins of biguanide exposure, average: average of replicates; for rotenone sensitive OCR after 40 mins of biguanide exposure / rotenone sensitive OCR after 40 mins of biguanide exposure, % control: individual replicates
Protocol: as §1, §2, §3

[5] = test system: mouse liver mitochondria; test: ADP-stimulated rotenone-sensitive OCR in isolated mouse liver mitochondria; type: biochemical; parameters: rotenone sensitive OCR after ADP stimulation, individual replicates / rotenone sensitive OCR after ADP stimulation, average: unit not given here; settings: for rotenone sensitive OCR after ADP stimulation, % of control, average / rotenone sensitive OCR after ADP stimulation, average: average of replicates; for rotenone sensitive OCR after ADP stimulation, % of control, individual replicates / rotenone sensitive OCR after ADP stimulation, individual replicates: replicate 1-5
Protocol: as §4, §5

SMILES	rotenone sensitive OCR after 6 hours of biguanide exposure, % control, average [1]	rotenone sensitive OCR after 6 hours of biguanide exposure, average [1]	inhibition of rotenone-sensitive respiration (in words) [1]	rotenone sensitive OCR after ADP stimulation, % of control, average [2]	rotenone sensitive OCR after ADP stimulation, average [2]	rotenone sensitive OCR after ADP stimulation, % of control, individual replicates [2]	rotenone sensitive OCR after ADP stimulation, individual replicates [2]	inhibition of OCR [3]	rotenone sensitive OCR after ADP stimulation, % of control, average [3]	rotenone sensitive OCR after ADP stimulation, average [3]	rotenone sensitive OCR after ADP stimulation, % of control, average ([3]; biguanide at IC50/5)	rotenone sensitive OCR after ADP stimulation, average ([3]; biguanide at IC50/5)	rotenone sensitive OCR after ADP stimulation ([3]; biguanide at IC50/5)	rotenone sensitive OCR after ADP stimulation, % of control ([3]; biguanide at IC50/5)	rotenone sensitive OCR after 6 hours of biguanide exposure, % control, average [4]	rotenone sensitive OCR after 6 hours of biguanide exposure, average [4]	rotenone sensitive OCR after 40 mins of biguanide exposure, % control, average [4]	rotenone sensitive OCR after 40 mins of biguanide exposure, average [4]	rotenone sensitive OCR after 40 mins of biguanide exposure [4]	rotenone sensitive OCR after 40 mins of biguanide exposure, % control [4]	also measured
NC(N)=NC(N)=NCc1ccccc1 [compound 3, 2-benzyl-1-(diaminomethylidene)guanidine]	1.26 % control	1.29	inhibit respiration	24.02 % of control	6.59	20.74 % of control and 19.21 % of control and 31.06 % of control and 25.09 % of control	5.69 and 5.27 and 8.51 and 6.88	exceeded 90%	12.04 % of control	33.92	12.04 % of control	33.92	60.28 and 86.89 and -11.73 and 15.23 and 8.14 and 44.74	21.39 % of control and 30.83 % of control and -4.16 % of control and 5.40 % of control and 2.89 % of control and 15.88 % of control	18.14 % control	18.19	88.51 % control	90.06	86.89 and 91.07 and 89.16 and 91.81 and 91.02 and 90.42	85.39 % control and 89.50 % control and 87.62 % control and 90.23 % control and 89.45 % control and 88.86 % control	accumulation into mitochondria (matrix concentration relative to extracellular medium) ([3]; permeabilized MDBK cells, after 30 min of biguanide exposure, IC50/5): more than 200 fold; rotenone sensitive OCR after ADP stimulation, % of control, average [5]: 32.07 % of control; rotenone sensitive OCR after ADP stimulation, average [5]: 11.13; rotenone sensitive OCR after ADP stimulation, % of control, individual replicates [5]: 34.06 % of control and 31.32 % of control and 34.05 % of control and 28.86 % of control; rotenone sensitive OCR after ADP stimulation, individual replicates [5]: 11.82 (2×) and 10.87 and 10.01
CC(C)N=C(N)N=C(N)N [compound 4, 1-(diaminomethylidene)-2-(propan-2-yl)guanidine]	0.42 % control	0.43	inhibit respiration	8.94 % of control	2.45	10.19 % of control and 7.26 % of control and 8.19 % of control and 10.12 % of control	2.79 and 1.99 and 2.25 and 2.77	exceeded 90%	3.16 % of control	8.89	3.16 % of control	8.89	14.20 and 41.21 and 15.97 and 1.99 and -24.18 and 20.17 and 9.00 and -7.21	5.04 % of control and 14.62 % of control and 5.67 % of control and 0.71 % of control and -8.58 % of control and 7.16 % of control and 3.19 % of control and -2.56 % of control	18.29 % control	18.34	93.72 % control	95.36	95.78 and 95.98 and 96.95 and 94.61 and 94.86 and 94.00	94.13 % control and 94.32 % control and 95.28 % control and 92.98 % control and 93.22 % control and 92.38 % control	estimated rate of uptake into mitochondria ([1]; HepG2 cells, 3 mM in the extracellular medium): > 1.5 mM/min; rotenone sensitive OCR after ADP stimulation, % of control, average [5]: 19.19 % of control; rotenone sensitive OCR after ADP stimulation, average [5]: 6.66; rotenone sensitive OCR after ADP stimulation, % of control, individual replicates [5]: 21.16 % of control and 18.53 % of control and 17.88 % of control; rotenone sensitive OCR after ADP stimulation, individual replicates [5]: 7.34 and 6.43 and 6.20
